Experiment in all cases: relative viability (nuclei count vs DMSO), 5 days (fraction); higher = more cells survive
Compound in the assay “Pictilisib + Trametinib”: CS(=O)(=O)N1CCN(Cc2cc3nc(-c4cccc5[nH]ncc45)nc(N4CCOCC4)c3s2)CC1 [Pictilisib] + CC(=O)Nc1cccc(-n2c(=O)n(C3CC3)c(=O)c3c(Nc4ccc(I)cc4F)n(C)c(=O)c(C)c32)c1 [Trametinib] (partner 0.02 µM)
In short, it runs like this: (§1)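 Lung cancer cell lines were seeded in 1536-well plates and dosed by pin tool the next day, with either a single drug or a fixed anchor-drug dose combined with five library-drug doses (not always all listed) spaced in √10 steps. Five days later, one step fixed the cells and stained their nuclei (final 0.05% Triton X-100, 1% formaldehyde, 1 ug/ml Hoechst), and nuclei were counted on 4× images. Relative viability is the nuclei count in treated wells divided by the count in vehicle wells, and each value is the median of duplicate plates.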

Compound in the assay “Pictilisib + Pemetrexed”: CS(=O)(=O)N1CCN(Cc2cc3nc(-c4cccc5[nH]ncc45)nc(N4CCOCC4)c3s2)CC1 [Pictilisib] + Nc1nc2[nH]cc(CCc3ccc(C(=O)N[C@@H](CCC(=O)O)C(=O)O)cc3)c2c(=O)[nH]1 [Pemetrexed] (partner 0.2 µM)
In short, it runs like this: as §1

Compound in the assay “MK-2206 + Bortezomib”: NC1(c2ccc(-c3nc4ccn5c(=O)[nH]nc5c4cc3-c3ccccc3)cc2)CCC1 [MK-2206] + CC(C)C[C@H](NC(=O)[C@H](Cc1ccccc1)NC(=O)c1cnccn1)B(O)O [Bortezomib] (partner 0.002 µM)
Summed up: as §1

Compound in the assay “MK-2206 + Lapatinib”: NC1(c2ccc(-c3nc4ccn5c(=O)[nH]nc5c4cc3-c3ccccc3)cc2)CCC1 [MK-2206] + CS(=O)(=O)CCNCc1ccc(-c2ccc3ncnc(Nc4ccc(OCc5cccc(F)c5)c(Cl)c4)c3c2)o1 [Lapatinib] (partner 2 µM)
Summed up: as §1

Compound in the assay “MK-2206 + Linsitinib”: NC1(c2ccc(-c3nc4ccn5c(=O)[nH]nc5c4cc3-c3ccccc3)cc2)CCC1 [MK-2206] + C[C@]1(O)C[C@@H](c2nc(-c3ccc4ccc(-c5ccccc5)nc4c3)c3c(N)nccn32)C1 [Linsitinib] (partner 1 µM)
In short, it runs like this: as §1

For the cell line NCI-H2347, the relative viability in the assay with Pictilisib + Trametinib (first compound 0.02 µM) was found to be 0.271; with Pictilisib + Trametinib (first compound 0.06325 µM), 0.269; with Pictilisib + Trametinib (first compound 0.6325 µM), 0.25; with Pictilisib + Trametinib (first compound 2 µM) it was 0.24; in the assay with Pictilisib + Pemetrexed (first compound 0.02 µM), 0.459; with Pictilisib + Pemetrexed (first compound 0.06325 µM) it was 0.455. Further, the relative viability with Pictilisib + Pemetrexed (first compound 0.6325 µM) was determined as 0.391; in the assay with Pictilisib + Pemetrexed (first compound 2 µM), 0.367; with MK-2206 + Bortezomib (first compound 0.01 µM) it was 0.914; with MK-2206 + Bortezomib (first compound 0.03162 µM), 1.11; in the assay with MK-2206 + Bortezomib (first compound 0.3162 µM), 1.06; with MK-2206 + Bortezomib (first compound 1 µM), 0.92. The relative viability with MK-2206 + Lapatinib (first compound 0.01 µM) came out at 0.845; with MK-2206 + Lapatinib (first compound 0.03162 µM), 1.06; with MK-2206 + Lapatinib (first compound 0.3162 µM) it was 0.887; with MK-2206 + Lapatinib (first compound 1 µM) it was 0.953; with MK-2206 + Linsitinib (first compound 0.01 µM) it was 0.906; with MK-2206 + Linsitinib (first compound 0.03162 µM) it was 1. Moreover, the relative viability turned out to be 0.848 with MK-2206 + Linsitinib (first compound 0.3162 µM) and 0.952 with MK-2206 + Linsitinib (first compound 1 µM).

Regarding HCC-15, the relative viability with Pictilisib + Trametinib (first compound 0.02 µM) was 0.359; in the assay with Pictilisib + Trametinib (first compound 0.06325 µM), 0.334; in the assay with Pictilisib + Trametinib (first compound 0.6325 µM) it was 0.237; with Pictilisib + Trametinib (first compound 2 µM), 0.178; with Pictilisib + Pemetrexed (first compound 0.02 µM) it was 0.224; with Pictilisib + Pemetrexed (first compound 0.06325 µM) it was 0.224. The relative viability with Pictilisib + Pemetrexed (first compound 0.6325 µM) stood at 0.224; with Pictilisib + Pemetrexed (first compound 2 µM) it was 0.202; in the assay with MK-2206 + Bortezomib (first compound 0.01 µM), 0.98; with MK-2206 + Bortezomib (first compound 0.03162 µM), 1.07; in the assay with MK-2206 + Bortezomib (first compound 0.3162 µM), 1; with MK-2206 + Bortezomib (first compound 1 µM), 0.811. In addition, the relative viability was found to be 0.825 with MK-2206 + Lapatinib (first compound 0.01 µM); 0.9 with MK-2206 + Lapatinib (first compound 0.03162 µM); 0.657 in the assay with MK-2206 + Lapatinib (first compound 0.3162 µM); 0.8 with MK-2206 + Lapatinib (first compound 1 µM); 0.92 in the assay with MK-2206 + Linsitinib (first compound 0.01 µM); 0.897 with MK-2206 + Linsitinib (first compound 0.03162 µM). Besides, the relative viability with MK-2206 + Linsitinib (first compound 0.3162 µM) came out at 0.846; in the assay with MK-2206 + Linsitinib (first compound 1 µM), 0.852.

In the case of SW 1573, the relative viability with Pictilisib + Trametinib (first compound 0.02 µM) came out at 0.563; in the assay with Pictilisib + Trametinib (first compound 0.06325 µM), 0.473; with Pictilisib + Trametinib (first compound 0.6325 µM), 0.379; with Pictilisib + Trametinib (first compound 2 µM) it was 0.239; with Pictilisib + Pemetrexed (first compound 0.02 µM), 0.845; in the assay with Pictilisib + Pemetrexed (first compound 0.06325 µM) it was 0.91. The relative viability with Pictilisib + Pemetrexed (first compound 0.6325 µM) was determined as 0.52; with Pictilisib + Pemetrexed (first compound 2 µM) it was 0.424; in the assay with MK-2206 + Bortezomib (first compound 0.01 µM) it was 0.948; with MK-2206 + Bortezomib (first compound 0.03162 µM), 1.04; with MK-2206 + Bortezomib (first compound 0.3162 µM), 0.834; with MK-2206 + Bortezomib (first compound 1 µM), 0.629. The relative viability worked out at 0.88 with MK-2206 + Lapatinib (first compound 0.01 µM); 1.15 with MK-2206 + Lapatinib (first compound 0.03162 µM); 0.987 in the assay with MK-2206 + Lapatinib (first compound 0.3162 µM); 0.982 in the assay with MK-2206 + Lapatinib (first compound 1 µM); 0.751 in the assay with MK-2206 + Linsitinib (first compound 0.01 µM); 0.824 with MK-2206 + Linsitinib (first compound 0.03162 µM). The relative viability with MK-2206 + Linsitinib (first compound 0.3162 µM) is 0.665; with MK-2206 + Linsitinib (first compound 1 µM), 0.592.

NCI-H838: the relative viability with Pictilisib + Trametinib (first compound 0.02 µM) is 0.431; with Pictilisib + Trametinib (first compound 0.06325 µM), 0.453; in the assay with Pictilisib + Trametinib (first compound 0.6325 µM), 0.374; with Pictilisib + Trametinib (first compound 2 µM), 0.246; with Pictilisib + Pemetrexed (first compound 0.02 µM) it was 0.24; with Pictilisib + Pemetrexed (first compound 0.06325 µM) it was 0.251. In addition, the relative viability with Pictilisib + Pemetrexed (first compound 0.6325 µM) worked out at 0.314; with Pictilisib + Pemetrexed (first compound 2 µM) it was 0.184; with MK-2206 + Bortezomib (first compound 0.01 µM), 0.822; with MK-2206 + Bortezomib (first compound 0.03162 µM), 0.916; with MK-2206 + Bortezomib (first compound 0.3162 µM) it was 0.836; with MK-2206 + Bortezomib (first compound 1 µM), 0.751. Also, the relative viability with MK-2206 + Lapatinib (first compound 0.01 µM) stood at 1.04; with MK-2206 + Lapatinib (first compound 0.03162 µM), 1.18; with MK-2206 + Lapatinib (first compound 0.3162 µM), 1.01; in the assay with MK-2206 + Lapatinib (first compound 1 µM), 0.675; with MK-2206 + Linsitinib (first compound 0.01 µM), 1; in the assay with MK-2206 + Linsitinib (first compound 0.03162 µM), 1.03. For the same cell line, the figures for the relative viability with MK-2206 + Linsitinib (first compound 0.3162 µM) and with MK-2206 + Linsitinib (first compound 1 µM) were 1.02 and 0.95, respectively.

On to RERF-LC-KJ, for which the relative viability with Pictilisib + Trametinib (first compound 0.02 µM) came out at 0.828; in the assay with Pictilisib + Trametinib (first compound 0.06325 µM), 0.859; with Pictilisib + Trametinib (first compound 0.6325 µM), 0.708; with Pictilisib + Trametinib (first compound 2 µM), 0.56; with Pictilisib + Pemetrexed (first compound 0.02 µM), 0.459; with Pictilisib + Pemetrexed (first compound 0.06325 µM), 0.478. The relative viability is 0.448 in the assay with Pictilisib + Pemetrexed (first compound 0.6325 µM); 0.404 with Pictilisib + Pemetrexed (first compound 2 µM); 1.06 with MK-2206 + Bortezomib (first compound 0.01 µM); 1.12 with MK-2206 + Bortezomib (first compound 0.03162 µM); 0.876 in the assay with MK-2206 + Bortezomib (first compound 0.3162 µM); 1.02 in the assay with MK-2206 + Bortezomib (first compound 1 µM). Besides, the relative viability with MK-2206 + Lapatinib (first compound 0.01 µM) stood at 0.871; with MK-2206 + Lapatinib (first compound 0.03162 µM) it was 0.902; in the assay with MK-2206 + Lapatinib (first compound 0.3162 µM), 0.723; with MK-2206 + Lapatinib (first compound 1 µM), 0.787; with MK-2206 + Linsitinib (first compound 0.01 µM) it was 0.848; in the assay with MK-2206 + Linsitinib (first compound 0.03162 µM) it was 0.864. Moreover, the relative viability with MK-2206 + Linsitinib (first compound 0.3162 µM) is 0.9; with MK-2206 + Linsitinib (first compound 1 µM), 0.789.

Turning to PC-14, the relative viability amounted to 0.749 in the assay with Pictilisib + Trametinib (first compound 0.02 µM); 0.761 with Pictilisib + Trametinib (first compound 0.06325 µM); 0.537 in the assay with Pictilisib + Trametinib (first compound 0.6325 µM); 0.196 with Pictilisib + Trametinib (first compound 2 µM); 0.137 with Pictilisib + Pemetrexed (first compound 0.02 µM); 0.133 in the assay with Pictilisib + Pemetrexed (first compound 0.06325 µM). Further, the relative viability was 0.136 in the assay with Pictilisib + Pemetrexed (first compound 0.6325 µM); 0.0862 in the assay with Pictilisib + Pemetrexed (first compound 2 µM); 0.732 in the assay with MK-2206 + Bortezomib (first compound 0.01 µM); 0.858 with MK-2206 + Bortezomib (first compound 0.03162 µM); 0.811 with MK-2206 + Bortezomib (first compound 0.3162 µM); 0.851 in the assay with MK-2206 + Bortezomib (first compound 1 µM). Also, the relative viability worked out at 0.297 with MK-2206 + Lapatinib (first compound 0.01 µM); 0.316 in the assay with MK-2206 + Lapatinib (first compound 0.03162 µM); 0.287 in the assay with MK-2206 + Lapatinib (first compound 0.3162 µM); 0.221 with MK-2206 + Lapatinib (first compound 1 µM); 0.869 with MK-2206 + Linsitinib (first compound 0.01 µM); 1.03 with MK-2206 + Linsitinib (first compound 0.03162 µM). Also, the relative viability with MK-2206 + Linsitinib (first compound 0.3162 µM) came to 0.862; with MK-2206 + Linsitinib (first compound 1 µM), 0.92.

Regarding NCI-H2009, the relative viability was found to be 0.36 in the assay with Pictilisib + Trametinib (first compound 0.02 µM); 0.277 in the assay with Pictilisib + Trametinib (first compound 0.06325 µM); 0.167 with Pictilisib + Trametinib (first compound 0.6325 µM); 0.116 with Pictilisib + Trametinib (first compound 2 µM); 1.04 with Pictilisib + Pemetrexed (first compound 0.02 µM); 1.12 in the assay with Pictilisib + Pemetrexed (first compound 0.06325 µM). The relative viability was found to be 1.17 in the assay with Pictilisib + Pemetrexed (first compound 0.6325 µM); 0.875 in the assay with Pictilisib + Pemetrexed (first compound 2 µM); 0.969 with MK-2206 + Bortezomib (first compound 0.01 µM); 1.03 in the assay with MK-2206 + Bortezomib (first compound 0.03162 µM); 1.12 with MK-2206 + Bortezomib (first compound 0.3162 µM); 0.94 in the assay with MK-2206 + Bortezomib (first compound 1 µM). In addition, the relative viability is 0.825 with MK-2206 + Lapatinib (first compound 0.01 µM); 1.01 in the assay with MK-2206 + Lapatinib (first compound 0.03162 µM); 0.936 with MK-2206 + Lapatinib (first compound 0.3162 µM); 0.986 with MK-2206 + Lapatinib (first compound 1 µM); 1.15 in the assay with MK-2206 + Linsitinib (first compound 0.01 µM); 1.16 with MK-2206 + Linsitinib (first compound 0.03162 µM). In addition, the relative viability in the assay with MK-2206 + Linsitinib (first compound 0.3162 µM) turned out to be 1.16; in the assay with MK-2206 + Linsitinib (first compound 1 µM) it was 1.02.

Values taken from the supplement of paper PMC10307832.
